# Test results as given in article PMC12116161, “An Elastase Inhibitor ShSPI from Centipede Attenuates Bleomycin-Induced Pulmonary Fibrosis” (Toxins, 2025).
# Tested on: MCP-1, IL-6, IL-1β, IFN-γ, IL-10, TGF-β mRNA in lung tissue
# Assay: RT-qPCR of inflammatory factor mRNA in lung tissue of IPF mice
# Type: in vivo, ICR mice
# Details: pirfenidone 200 mg/kg oral gavage once daily for 7 days, BLM-induced IPF mice
# Protocol: Animal Model Preparation: The peptide powder was dissolved in pre-cooled saline and filtered to remove bacteria, then a spray needle was attached to a micro-syringe to aspirate the peptide solution. A total of 56 ICR mice were anesthetized by intramuscular injection of avertin. After anesthesia, the mice were fixed supine, the tongue was gently pulled, the vocal folds were exposed with a laryngoscope, the trachea was gently inserted, and the nebulized solution was rapidly pushed and injected. Each mouse was administered 100 μL of a 0.4 mg/mL bleomycin solution via tracheal spray, with the treatment performed once. Seven days after modeling, the mice were randomly grouped for ShSPI treatment based on weight loss scores. An additional 8 mice received the vehicle (normal saline) and were designated as the sham group.
# A total of 48 suitable mice were randomly divided into five groups: the model control group (MC), the positive control group (PC), and the ShSPI low-dose groups (1 mg/kg), medium-dose groups (2 mg/kg), and high-dose groups (4 mg/kg).
# Drug Administration: Starting on day 7 post-modeling, ShSPI peptide treatment groups were anesthetized with intramuscular avertin and received tracheal spray administration of the peptide. The low-dose group was treated with 1 mg/kg ShSPI peptide, the medium-dose group with 2 mg/kg, and the high-dose group with 4 mg/kg. The positive control group, without anesthesia, received 200 mg/kg pirfenidone (IPFD) via oral gavage. All groups were treated once daily for seven consecutive days.
# The left lobe of the lung was collected from each mouse for total RNA extraction using RNAiso Plus, following the manufacturer’s instructions. The extracted RNA was quantified using a UV spectrophotometer. One microgram of total RNA was reverse transcribed into cDNA using a first-strand cDNA synthesis kit, following the provided protocol. Quantitative PCR (qPCR) was performed on a QuantStudio system using 2× SYBR Green qPCR Master Mix, and β-actin served as the internal control. The PCR reaction utilized a two-step protocol: 95 °C for 15 s, followed by 60 °C for 60 s, repeated for 40 cycles. Gene expression levels were calculated using the 2^−ΔΔCt method.
compound,measurement,value
"Cc1ccc(=O)n(-c2ccccc2)c1 [pirfenidone, reference compound]","mRNA content of pro-inflammatory cytokines (MCP-1, IL-6, IL-1β, IFN-γ) in lung tissue",reduction
